Test results: patent US9725463B2, “Substituted heterocyclic compounds as CRAC modulators” (LUPIN LIMITED, priority 2013, dated 2017)

Tested on: IL-2 secretion by Jurkat T cells
Assay: Inhibition of IL-2 secretion
Format: cell-based
Details: Homo sapiens; Jurkat T cells stimulated with PHA, 20 to 24 hours, IL-2 by ELISA
Protocol: The CRAC channel modulatory activity of the compounds were thus evaluated by measuring the secretion of IL-2 by antigen stimulated T-cells in vitro. Alternatively, such activity can also be evaluated by assay methods known to one skilled in the art.
Inhibition of IL-2 secretion: Jurkat T cells were seeded at a density of 0.5 to 1 million cells per well in RPMI medium. Test compounds from this invention were added to the cells at different concentrations. This was followed by the addition of PHA, a T cell mitogen after 10 minutes. The cells were then incubated for 20 to 24 hours in a CO2 incubator at 37° C. After incubation with the compounds, cells were centrifuged, the supernatant was collected and processed for ELISA to quantitate the amount of IL-2 secreted. A commercial ELISA kit (R&D Systems, Inc. Minneapolis, Minn., USA) was used to estimate the IL-2 concentrations. Amount of IL-2 secreted by cells stimulated with PHA was considered as a 100% maximal signal and the decrease in amount of IL-2 secreted by cells treated with the test compounds was expressed as percent inhibition of the maximal signal. The dose response data was analyzed using 4-parametric sigmoidal dose response (variable slope) curve-fit.

SMILES | IC50 [nM]
Cc1cc2oc(=O)n(C)c2cc1-c1ccc(NC(=O)c2c(F)cccc2Cl)cc1 [Example 46, 2-Chloro-N-(4-(3,6-dimethyl-2-oxo-2,3-dihydrobenzo[d]oxazol-5-yl)phenyl)-6-fluorobenzamide] | 25 to 50
Cn1c(=O)oc2cc(-c3ccc(C(=O)Nc4c(F)cccc4F)s3)c(C3CC3)cc21 [Example 74, 5-(5-Cyclopropyl-3-methyl-2-oxo-2,3-dihydrobenzo [d]oxazol-6-yl)-N-(2,6-difluorophenyl) thiophene-2-carboxamide] | 50 to 100
Cn1c(=O)oc2c(C3CC3)c(-c3ccc(NC(=O)c4ccccc4Cl)cc3)ccc21 [Example 103, 2-Chloro-N-(4-(7-cyclopropyl-3-methyl-2-oxo-2,3-dihydrobenzo[d]oxazol-6-yl)phenyl)benzamide] | 50 to 100
CCc1nc2c(cc1-c1ccc(NC(=O)c3c(F)cccc3F)cc1)oc(=O)n2C [Example 37, N-(4-(5-Ethyl-3-methyl-2-oxo-2,3-dihydrooxazolo [4,5-b]pyridin-6-yl)phenyl)-2,6-difluorobenzamide] | < 25
CCCn1c(=O)oc2cc(C)c(-c3ccc(NC(=O)c4c(F)cccc4F)cc3)cc21 [Example 34, 2,6-Difluoro-N-(4-(6-methyl-2-oxo-3-propyl-2,3-dihydrobenzo [d]oxazol-5-371)phenyl)benzamide] | < 25
CN1C(=O)COc2c1ccc(-c1cnc(NC(=O)c3c(F)cccc3F)cn1)c2C1CC1 [Example 109, N-(5-(8-Cyclopropyl-4-methyl-3-oxo-3,4-dihydro-2H-benzo[b][1,4]oxazin-7-yl)pyrazin-2-yl)-2,6-difluorobenzamide] | 50 to 100
CCc1cc2oc(=O)n(C)c2cc1-c1ccc(C(=O)Nc2c(F)cccc2F)s1 [Example 88, N-(2,6-Difluorophenyl)-5-(6-ethyl-3-methyl-2-oxo-2,3-dihydrobenzo [d]oxazol-5-yl) thiophene-2-carboxamide] | < 25
CCc1cc2oc(=O)n(C)c2cc1-c1cnc(NC(=O)c2c(F)cccc2F)cn1 [Example 80, N-(5-(6-Ethyl-3-methyl-2-oxo-2,3-dihydrobenzo[d]oxazol-5-yl)pyrazin-2-yl)-2,6-difluoro benzamide] | 50 to 100
CCc1cc2c(cc1-c1ccc(NC(=O)c3c(F)cccc3F)nc1)OCC(=O)N2C [Example 122, N-(5-(6-Ethyl-4-methyl-3-oxo-3,4-dihydro-2H-benzo[b][1,4]oxazin-7-yl)pyridin-2-yl)-2,6-difluorobenzamide] | < 25
Cc1cc2oc(=O)n(C(C)C)c2cc1-c1ccc(NC(=O)c2c(F)cccc2F)cc1 [Example 31, 2,6-Difluoro-N-(4-(3-isopropyl-6-methyl-2-oxo-2,3-dihydrobenzo[d]oxazol-5-yl)phenyl)benzamide] | < 25
CCc1cc2oc(=O)n(C)c2cc1-c1ccc(C(=O)Nc2c(F)cncc2F)cc1 [Example 92, N-(3,5-Difluoropyridin-4-yl)-4-(6-ethyl-3-methyl-2-oxo-2,3-dihydrobenzo [d]oxazol-5-yl) benzamide] | < 25
Cc1cc2oc(=O)n(C(F)F)c2cc1-c1cnc(NC(=O)c2c(F)cccc2F)cn1 [Example 78, N-(5-(3-(Difluoromethyl)-6-methyl-2-oxo-2,3-dihydrobenzo[d]oxazol-5-yl)pyrazin-2-yl)-2,6-difluorobenzamide] | < 25
Cc1c(-c2ccc(NC(=O)c3c(F)cccc3F)cc2)ccc2c1oc(=O)n2C [Example 14, N-(4-(3,7-Dimethyl-2-oxo-2,3-dihydrobenzo [d]oxazol-6-yl)phenyl)-2,6-difluorobenzamide] | 50 to 100
CCc1cc2oc(=O)n(C)c2cc1-c1ccc(NC(=O)c2c(F)cccc2F)nc1 [Example 82, N-(5-(6-Ethyl-3-methyl-2-oxo-2,3-dihydrobenzo[d]oxazol-5-yl)pyridin-2-yl)-2,6-difluoro benzamide] | < 25
CCc1c(-c2ccc(NC(=O)c3c(F)cccc3F)cc2)ccc2c1oc(=O)n2C [Example 16, N-(4-(7-Ethyl-3-methyl-2-oxo-2,3-dihydrobenzo [d]oxazol-6-yl)phenyl)-2,6-difluorobenzamide] | 25 to 50
CCc1cc2c(cc1-c1ccc(C(=O)Nc3c(F)cccc3F)s1)oc(=O)n2C [Example 73, N-(2,6-Difluorophenyl)-5-(5-ethyl-3-methyl-2-oxo-2,3-dihydrobenzo [d]oxazol-6-yl) thiophene-2-carboxamide] | 25 to 50
O=C(Nc1ccc(-c2ccc3c(oc(=O)n3C(F)F)c2C2CC2)cc1)c1c(F)cccc1F [Example 95, N-(4-(7-Cyclopropyl-3-(difluoromethyl)-2-oxo-2,3-dihydrobenzo[d]oxazol-6-yl)phenyl)-2,6-difluorobenzamide] | < 25
Cc1cc2oc(=O)n(C)c2cc1-c1ccc(NC(=O)c2c(F)cccc2F)cc1 [Example 27, N-(4-(3,6-Dimethyl-2-oxo-2,3-dihydrobenzo [d]oxazol-5-yl)phenyl)-2,6-difluorobenzamide] | < 25
Cc1cc2oc(=O)n(CCC(F)(F)F)c2cc1-c1ccc(NC(=O)c2c(F)cccc2F)cc1 [Example 33, 2,6-Difluoro-N-(4-(6-methyl-2-oxo-3-(3,3,3-trifluoropropyl)-2,3-dihydrobenzo[d]oxazol-5-yl)phenyl) benzamide] | 100 to 500
CN1C(=O)COc2cc(-c3ccc(NCc4c(F)cccc4F)cc3)c(C3CC3)cc21 [Example 114, 6-Cyclopropyl-7-(4-((2,6-difluorobenzyl)amino)phenyl)-4-methyl-2H-benzo[b][1,4]oxazin-3(4H)-one] | < 25
Cc1cc2oc(=O)n(C(F)F)c2cc1-c1ccc(NC(=O)c2c(F)cccc2F)nc1 [Example 77, N-(5-(3-(Difluoromethyl)-6-methyl-2-oxo-2,3-dihydrobenzo[d]oxazol-5-yl)pyridin-2-yl)-2,6 difluorobenzamide] | < 25
CCc1cc2c(cc1-c1cnc(NC(=O)c3c(F)cccc3F)cn1)N(C)C(=O)CO2 [Example 133, N-(5-(7-Ethyl-4-methyl-3-oxo-3,4-dihydro-2H-benzo[b][1,4]oxazin-6-yl)pyrazin-2-yl)-2,6-difluorobenzamide] | 100 to 500
